{
  "source": "patent US8481561B2",
  "about": "“Classes of GABAA/BZR ligands” (Innovationspatent Sverige AB, priority 2008, dated 2013)",
  "key": {"benzodiazepine receptor": {"biological_target": "benzodiazepine receptor", "experiment": "Displacement of 3H-flumazenil binding in rat cortical tissue (receptor binding)", "conditions": "3H-Flumazenil binding in vitro, rat cortical membranes; mean of three determinations", "method": "Affinity of test substances for the benzodiazepine receptor was determined in vitro by displacement of ^3H-flumazenil in rat cortical tissue."}},
  "data": [
    {"smiles": "Cc1ccc(-c2nsc3[nH]c4ccc(Br)cc4c(=O)c23)cc1", "note": "[Compound 24, 6-Bromo-3-(4-methylphenyl)isothiazolo[5,4-b]quinolin-4(9H)-one]", "values": [
      {"measurement": "Ki", "setting": "benzodiazepine receptor", "value": 2.9, "unit": "nM"},
      {"measurement": "melting point", "value": 331, "unit": "°C"}
    ]},
    {"smiles": "Cc1ccc(-c2nsc3[nH]c4ccc(C)cc4c(=O)c23)cc1", "note": "[Compound 19, 6-Methyl-3-(4-methylphenyl)isothiazolo[5,4-b]quinolin-4(9H)-one]", "values": [
      {"measurement": "Ki", "setting": "benzodiazepine receptor", "value": 1.9, "unit": "nM"},
      {"measurement": "melting point", "value": 330, "unit": "°C"}
    ]},
    {"smiles": "Cc1ccc2[nH]c3onc(-c4ccccc4)c3c(=O)c2c1", "note": "[Compound 26, 6-Methyl-3-phenyl-isoxazolo[5,4-b]quinolin-4(9H)-one]", "values": [
      {"measurement": "Ki", "setting": "benzodiazepine receptor", "value": 18, "unit": "nM"}
    ]},
    {"smiles": "COc1ccc(-c2nsc3[nH]c4ccc(C)cc4c(=O)c23)cc1", "note": "[Compound 22, 3-(4-Methoxyphenyl)-6-methylisothiazolo[5,4-b]quinolin-4(9H)-one]", "values": [
      {"measurement": "Ki", "setting": "benzodiazepine receptor", "value": 2, "unit": "nM"}
    ]},
    {"smiles": "Cc1ccc2[nH]c3snc(-c4ccc([N+](=O)[O-])cc4)c3c(=O)c2c1", "note": "[Compound 23, 6-Methyl-3-(4-nitrophenyl)-isothiazolo[5,4-b]quinolin-4(9H)-one]", "values": [
      {"measurement": "Ki", "setting": "benzodiazepine receptor", "value": 5.5, "unit": "nM"},
      {"measurement": "melting point", "value": 343, "unit": "°C"}
    ]},
    {"smiles": "Cc1ccc2[nH]c3snc(-c4ccc(Br)cc4)c3c(=O)c2c1", "note": "[Compound 21, 3-(4-Bromophenyl)-6-methylisothiazolo[5,4-b]quinolin-4(9H)-one]", "values": [
      {"measurement": "Ki", "setting": "benzodiazepine receptor", "value": 5.3, "unit": "nM"},
      {"measurement": "melting point", "value": 357, "unit": "°C"}
    ]},
    {"smiles": "CCCC(=O)Nc1nsc2[nH]c3ccc(C)cc3c(=O)c12", "note": "[Compound 31, N-(6-methyl-4-oxo-4,9-dihydroisothiazolo[5,4-b]quinolin-3-yl)butanamide]", "values": [
      {"measurement": "Ki", "setting": "benzodiazepine receptor", "value": 2, "unit": "nM"}
    ]}
  ]
}
